# Values of other authors as cited in PubChem BioAssay AID1259409 (Chemical Carcinogenesis Research Information System (CCRIS), 2018).
# Test system: rodent chemically induced tumor inhibition, incidence and multiplicity
# Experiment: CCRIS tumor inhibitor studies
# Details: Route [Inhibitor]: ORAL, Species: RAT
smiles,measurement,setting,value
COc1cc(/C=C/C(=O)O[C@H]2CC[C@]34C[C@]35CC[C@]3(C)[C@@H]([C@H](C)CCC=C(C)C)CC[C@@]3(C)[C@@H]5CC[C@H]4C2(C)C)ccc1O,"tumour outcome (control, treated, inhibition, significance)","Carcinogen: 3,2'-DIMETHYL-4-AMINOBIPHENYL, 13394-86-0, Dose [Inhibitor]: 0, 2% IN BASAL DIET BEGINNING POST CARCINOGEN TREATMENT AND CONTINUING FOR 40 WK (STUDY DURATION: 60 WK), Strain/Sex: F344/MALE, Target Tissue: Type of Lesion: SMALL INTESTINE: ADENOMA AND ADENOCARCINOMA, Dose [Carcinogen]: 50 MG/KG 1/2 WK FOR 20 WK TO RATS MAINTAINED ON ETHINYL ESTRADIOL CONTAINING DIET (0.75 PPM) FOR 1 WK CYCLED WITH ETHINY, Promoter: ETHINYL ESTRADIOL, 57-63-6","2/10 (20%), 3/13 (23%), -15%, not significant"
same,"tumour outcome (control, treated, inhibition, significance)","Carcinogen: 3,2'-DIMETHYL-4-AMINOBIPHENYL, 13394-86-0, Dose [Inhibitor]: 0, 2% IN BASAL DIET BEGINNING POST CARCINOGEN TREATMENT AND CONTINUING FOR 40 WK (STUDY DURATION: 60 WK), Strain/Sex: F344/MALE, Target Tissue: Type of Lesion: SUBCUTIS: TUMOR, Dose [Carcinogen]: 50 MG/KG 1/2 WK FOR 20 WK TO RATS MAINTAINED ON ETHINYL ESTRADIOL CONTAINING DIET (0.75 PPM) FOR 1 WK CYCLED WITH ETHINY, Promoter: ETHINYL ESTRADIOL, 57-63-6","1/10 (10%), 0/13 (0%), 100%, not significant"
same,"tumour outcome (control, treated, inhibition, significance)","Carcinogen: 3,2-DIMETHYL-4-AMINOBIPHENYL, 13394-86-0, Dose [Inhibitor]: 0, 2% IN BASAL DIET BEGINNING POST CARCINOGEN TREATMENT AND CONTINUING FOR 40 WK (STUDY DURATION: 60 WK), Strain/Sex: F344/MALE, Target Tissue: Type of Lesion: PREPUTIAL GLAND: ADENOMA AND CARCINOMA, Dose [Carcinogen]: 50 MG/KG 1/2 WK FOR 20 WK TO RATS MAINTAINED ON ETHINYL ESTRADIOL CONTAINING DIET (0.75 PPM) FOR 1 WK CYCLED WITH ETHINY, Promoter: ETHINYL ESTRADIOL, 57-63-6","5/10 (50%), 8/13 (62%), -24%, not significant"
same,"tumour outcome (control, treated, inhibition, significance)","Carcinogen: 3,2-DIMETHYL-4-AMINOBIPHENYL, 13394-86-0, Dose [Inhibitor]: 0, 2% IN BASAL DIET BEGINNING POST CARCINOGEN TREATMENT AND CONTINUING FOR 40 WK (STUDY DURATION: 60 WK), Strain/Sex: F344/MALE, Target Tissue: Type of Lesion: ZYMBAL GLAND: ADENOMA AND CARCINOMA, Dose [Carcinogen]: 50 MG/KG 1/2 WK FOR 20 WK TO RATS MAINTAINED ON ETHINYL ESTRADIOL CONTAINING DIET (0.75 PPM) FOR 1 WK CYCLED WITH ETHINY, Promoter: ETHINYL ESTRADIOL, 57-63-6","2/10 (20%), 0/13 (0%), 100%, not significant"
same,"tumour outcome (control, treated, inhibition, significance)","Carcinogen: 3,2-DIMETHYL-4-AMINOBIPHENYL, 13394-86-0, Dose [Inhibitor]: 0, 200% PPM IN BASAL DIET BEGINNING POST CARCINOGEN TREATMENT AND CONTINUING FOR 40 WK (STUDY DURATION: 60 WK), Strain/Sex: F344/MALE, Target Tissue: Type of Lesion: LARGE INTESTINE: ADENOMA AND ADENOCARCINOMA, Dose [Carcinogen]: 50 MG/KG 1/2 WK FOR 20 WK TO RATS MAINTAINED ON ETHINYL ESTRADIOL CONTAINING DIET (0.75 PPM) FOR 1 WK CYCLED WITH ETHINY, Promoter: ETHINYL ESTRADIOL, 57-63-6","3/10 (30%), 3/13 (23%), 23%, not significant"
same,"tumour outcome (control, treated, inhibition, significance)","Carcinogen: 7,12-DIMETHYLBENZ[A]ANTHRACENE [57-97-6], Dose [Inhibitor]: 1% IN DIET FOR 35 WK BEGINNING 1 WK POST LAST CARCINOGEN DOSE (STUDY DURATION: 36 WK), Strain/Sex: SPRAGUE-DAWLEY/FEMALE, Target Tissue: Type of Lesion: MAMMARY GLAND: CARCINOMA, Dose [Carcinogen]: 50 MG/KG BW ONCE (STUDY DURATION: 36 WK), Promoter: NONE","14/15 (93%), 15/16 (94%), -1%, not significant"
same,"tumour outcome (control, treated, inhibition, significance)","Carcinogen: 7,12-DIMETHYLBENZ[A]ANTHRACENE [57-97-6], Dose [Inhibitor]: 1% IN DIET FOR 35 WK BEGINNING 1 WK POST LAST CARCINOGEN DOSE (STUDY DURATION: 36 WK), Strain/Sex: SPRAGUE-DAWLEY/FEMALE, Target Tissue: Type of Lesion: MAMMARY GLAND: FIBROADENOMA, Dose [Carcinogen]: 50 MG/KG BW ONCE (STUDY DURATION: 36 WK), Promoter: NONE","3/15 (20%), 2/16 (13%), 35%, not significant"
same,"tumour outcome (control, treated, inhibition, significance)","Carcinogen: 7,12-DIMETHYLBENZ[A]ANTHRACENE, 57-97-6, Dose [Inhibitor]: 0, 1% IN DIET FOR 35 WK BEGINNING POST CARCINOGEN DOSE (STUDY DURATION: 36 WK), Strain/Sex: SPRAGUE-DAWLEY/FEMALE, Target Tissue: Type of Lesion: EAR DUCT: TUMOR, Dose [Carcinogen]: 50 MG/KG BW IN CORN OIL ONCE, Promoter: NONE USED","5/15 (33%), 7/16 (44%), -33%, not significant"
same,"tumour outcome (control, treated, inhibition, significance)","Carcinogen: 7,12-DIMETHYLBENZ[A]ANTHRACENE, 57-97-6, Dose [Inhibitor]: 0, 1% IN DIET FOR 35 WK BEGINNING POST CARCINOGEN DOSE (STUDY DURATION: 36 WK), Strain/Sex: SPRAGUE-DAWLEY/FEMALE, Target Tissue: Type of Lesion: MAMMARY GLAND: ADENOCARCINOMA, Dose [Carcinogen]: 50 MG/KG BW IN CORN OIL ONCE, Promoter: NONE USED","14/15 (93%), 15/16 (94%), -1%, not significant"
same,"tumour outcome (control, treated, inhibition, significance)","Carcinogen: 7,12-DIMETHYLBENZ[A]ANTHRACENE, 57-97-6, Dose [Inhibitor]: 0, 1% IN DIET FOR 35 WK BEGINNING POST CARCINOGEN DOSE (STUDY DURATION: 36 WK), Strain/Sex: SPRAGUE-DAWLEY/FEMALE, Target Tissue: Type of Lesion: MAMMARY GLAND: FIBROADENOMA, Dose [Carcinogen]: 50 MG/KG BW IN CORN OIL ONCE, Promoter: NONE USED","3/15 (20%), 2/16 (13%), 35%, not significant"
